US8470770B2, “Antimicrobial agents” (priority 2007, dated 2013)
In brackets after ≈: the same amount, converted by molar mass. Bridge positions count the residues as written; N and C are the ends. Square brackets hold non-standard residues; d marks the D form. Ends that are not written are not given here. Peptide text beside a SMILES is read from it. 12Ado = NCCCCCCCCCCCC(=O)O

Assays:
[1] = system: Enterococcus faecalis (ATCC 29212); assay: microbe, parasite or virus in culture; assay type: cell-based
[2] = system: methicillin resistant Staphylococcus aureus (CI 15903); assay: microbe, parasite or virus in culture; settings: for MIC: Staphylococcus aureus, read-out: MIC MR S.a.; for MIC MR S.a.: methicillin resistant (CI 15903)
Experimental: (§1) Minimal inhibitory concentrations (MICs) were determined by microdilution susceptibility testing in 96-well plates using inocula of 10^6 bacteria per ml.
(§2) Cell populations were evaluated by optical density measurements at 600 nm and were calibrated against a set of standards. Hundred (100) μl of a bacterial suspension were added to 100 μl of culture medium (control) or to 100 μl of culture medium containing various polymer concentrations in 2-fold serial dilutions.
(§3) Alternatively, MICs were determined using the microbroth dilution assay recommended by the Clinical and Laboratory Standards Institute (CLSI) using two-fold serial dilutions in cation-adjusted Mueller-Hinton broth (CAMHB).
“MIC MR S.a.” represents the minimal inhibitory concentration of each tested polymer in μM for methicillin-resistant S. aureus, measured as described hereinabove for the antibacterial activity assay of antibiotic-resistant bacteria (column 8 in Table 3);

[3] = Hydrophobicity estimation by HPLC reversed-phase C18 elution; assay type: physicochemical; settings: HPLC-RP C18, linear acetonitrile gradient 1% per minute
Experimental: HPLC chromatograms were performed on C18 columns (Vydak, 250 mm×4.6 or 10 mm) using a linear gradient of acetonitrile in water (1% per minute), both solvents contained 0.1% trifluoroacetic acid. The purified polymers were subjected to mass spectrometry (ZQ Waters) to confirm their composition and stored as a lyophilized powder at −20° C. Prior to being tested, fresh solutions were prepared in water, mixed by vortex, solubilized by ultrasound, centrifuged and then diluted in the appropriate medium.
In order to estimate the hydrophobicity of each polymer, the polymer was eluted with a linear gradient of acetonitrile (1% per minute) on an HPLC reversed-phase C18 column, and the percent of acetonitrile at which the polymer was eluted was used for hydrophobicity estimation (see, “ACN (%)” in Table 3 below).
“ACN (%)” represents the percent of acetonitrile in the HPLC-RP gradient mobile phase at which the polymer was eluted and which corresponds to the estimated hydrophobicity of the polymer (column 4 in Table 3);

[4] = system: Bacillus cereus (ATCC 11778)
Experimental: as §1, §2, §3
“MIC B.c.” represents the minimal inhibitory concentration of each tested polymer in μM for Bacillus cereus, measured as described hereinabove for the antibacterial activity assay (column 9 in Table 3); and […]

[5] = system: Pseudomonas aeruginosa (ATCC 9027); assay: microbe, parasite or virus in culture; settings: for MIC P.a.: ATCC 9027
Experimental: as §1, §2, §3
“MIC P.a.” represents the minimal inhibitory concentration of each tested polymer in μM for P. aeruginosa, measured as described hereinabove for the antibacterial activity assay (column 7 in Table 3);

[6] = system: Escherichia coli (ATCC 35218); assay: microbe, parasite or virus in culture; settings: for MIC E.c.: ATCC 35218
Experimental: as §1, §2, §3
“MIC E.c.” represents the minimal inhibitory concentration of each tested polymer in μM for E. coli, measured as described hereinabove in the antibacterial activity assay (column 5 in Table 3);

Compound | ACN (%) (percent of acetonitrile at which the polymer was eluted; estimated hydrophobicity) [3] | MIC P.a. [5] | MIC E.c. [6] | MIC ([1]; ATCC 29212) | MIC MR S.a. [2] | other results
C[C@@H](O)[C@H]1C(=O)N2C(C(=O)O)=C(SCCN=CN)C[C@H]12 [Ref. 6, Imipenem, reference compound] | – | – | – | – | – | MIC ([1]; Enterococcus faecalis, ATCC29212): < 0.03 µM; MIC [2]: > 50 µM
NCCCCC1NC(=O)CCCCCCCCCCCNC(=O)C(CCCCN)NC(=O)CCCCCCCCCCCNC(=O)C(CCCCN)NC(=O)CCCCCCCCCCCNC(=O)C(CCCCN)NC(=O)CCCCCCCCCCCNC(=O)C(CCCCN)NC(=O)CCCCCCCCCCCNC1=O (stereo not shown) [Polymer 6, Cyclic-(NC12K)5] | 47.7% | 50 µM (≈ 81.4 µg/mL) | – | – | – | MIC B.c [4]: >50 µM
NCCCC[C@@H]1NC(=O)CCCCCCCCCCCNC(=O)[C@H](CCCCN)NC(=O)[C@H](CCCCN)NC(=O)CCCCCCCCCCCNC(=O)[C@H](CCCCN)NC(=O)[C@H](CCCCN)NC(=O)CCCCCCCCCCCNC(=O)[C@H](CCCCN)NC1=O [Polymer 8, Cyclic-(KNC12K)3] (cyclo(K[12Ado]KK[12Ado]KK[12Ado]K)) | 41.7% | 12.5 µM (≈ 17 µg/mL) | 25 µM (≈ 34 µg/mL) | 25 µM (≈ 34 µg/mL) | 25 µM (≈ 34 µg/mL) | –
ALWKTLLKKVLKAAAK-NH2 (C-terminus assumed) [Ref. 3, K4S4(1-16), reference compound] | 47% | – | – | 3.1 µM | – | –
CC[C@H](C)[C@H](NC(=O)[C@H](CCCCN)NC(=O)[C@H](CCC(=O)O)NC(=O)[C@H](CCCCN)NC(=O)[C@H](CO)NC(=O)[C@H](CCCCN)NC(=O)[C@H](CCCNC(=N)N)NC(=O)[C@H](Cc1ccccc1)NC(=O)[C@H](Cc1ccccc1)NC(=O)[C@H](CC(=O)O)NC(=O)CNC(=O)[C@H](CC(C)C)NC(=O)[C@@H](N)CC(C)C)C(=O)NCC(=O)N[C@@H](CCCCN)C(=O)N[C@@H](CCC(=O)O)C(=O)N[C@@H](Cc1ccccc1)C(=O)N[C@@H](CCCCN)C(=O)N[C@@H](CCCNC(=N)N)C(=O)N[C@H](C(=O)N[C@H](C(=O)N[C@@H](CCC(N)=O)C(=O)N[C@@H](CCCNC(=N)N)C(=O)N[C@H](C(=O)N[C@@H](CCCCN)C(=O)N[C@@H](CC(=O)O)C(=O)N[C@@H](Cc1ccccc1)C(=O)N[C@@H](CC(C)C)C(=O)N[C@@H](CCCNC(=N)N)C(=O)N[C@@H](CC(N)=O)C(=O)N[C@@H](CC(C)C)C(=O)N[C@H](C(=O)N1CCC[C@H]1C(=O)N[C@@H](CCCNC(=N)N)C(=O)N[C@H](C(=O)N[C@@H](CCC(=O)O)C(=O)N[C@@H](CO)C(=O)O)[C@@H](C)O)C(C)C)[C@@H](C)CC)C(C)C)[C@@H](C)CC [Ref. 4, LL37, reference compound] | 61% | – | – | – | – | MIC ([1]; Enterococcus faecalis): 37.5 µM (≈ 169 µg/mL)
CN(C)[C@@H]1C(O)=C(C(N)=O)C(=O)[C@@]2(O)C(O)=C3C(=O)c4c(O)cccc4[C@@](C)(O)[C@H]3C[C@@H]12 [Ref. 7, Tetracycline, reference compound] | – | – | – | – | – | MIC ([6]; Escherichia coli, ATCC35218, read-out: MIC E.c.): 1.8 µM (≈ 0.8 µg/mL); MIC ([5]; Pseudomonas aeruginosa, ATCC9027, read-out: MIC P.a.): > 50 µM; MIC [2]: 0.4 µM (≈ 0.178 µg/mL)
NCCCCC1NC(=O)CCCCCCCCCCCNC(=O)C(CCCCN)NC(=O)CCCCCCCCCCCNC1=O (stereo not shown) [Polymer 3, Cyclic-(NC12K)2] | 49.7% | >50 µM | – | >50 µM | – | –
CCCCCCCCCCCC(=O)NCCCCC(N)C(=O)NCCCCCCCCCCCC(=O)NCCCCC(N)C(N)=O (stereo not shown) [Polymer 13, C12K(ε)NC12K(ε)NH2] | 54.4% | >50 µM | 12.5 µM (≈ 8.16 µg/mL) | 12.5 µM (≈ 8.16 µg/mL) | 12.5 µM (≈ 8.16 µg/mL) | –
NCCCCC1NC(=O)CCCCCCCCCCCNC(=O)C(CCCCN)NC(=O)CCCCCCCCCCCNC(=O)C(CCCCN)NC(=O)CCCCCCCCCCCNC(=O)C(CCCCN)NC(=O)CCCCCCCCCCCNC1=O (stereo not shown) [Polymer 5, Cyclic-(NC12K)4] | 47.4% | >50 µM | >50 µM | – | >50 µM | MIC B.c [4]: >50 µM
CC(C)C[C@H](NC(=O)CNC(=O)CNC(=O)[C@@H](N)CCCNC(=N)N)C(=O)N[C@H]1CSSC[C@@H](C(=O)N[C@H](C(=O)NCC(=O)N[C@@H](CCCNC(=N)N)C(N)=O)C(C)C)NC(=O)[C@H](C(C)C)NC(=O)[C@@H]2CSSC[C@H](NC(=O)[C@H](Cc3ccc(O)cc3)NC1=O)C(=O)N[C@@H](CCCNC(=N)N)C(=O)NCC(=O)N[C@@H](CCCNC(=N)N)C(=O)N[C@@H](Cc1ccccc1)C(=O)N2 [Ref. 2, IB-367, reference compound] (H-RGGLCYCRGRFCVCVGR-NH2; disulfide 5-14, 7-12) | 45% | – | – | – | – | –
NCCCCC1NC(=O)CCCCCCCCCCCNC(=O)C(CCCCN)NC(=O)C(CCCCN)NC(=O)CCCCCCCCCCCNC1=O (stereo not shown) [Polymer 9, Cyclic-NC12KKNC12K] (cyclo([12Ado]K[12Ado]KK); configuration not given here) | 42.7% | 50 µM (≈ 39 µg/mL) | – | 25 µM (≈ 19.5 µg/mL) | – | –
NCCCCC1NC(=O)CCCCCCCCCCCNC(=O)C(CCCCN)NC(=O)C(CCCCN)NC(=O)CCCCCCCCCCCNC(=O)C(CCCCN)NC1=O (stereo not shown) [Polymer 7, Cyclic-(KNC12K)2] (cyclo([12Ado]KK[12Ado]KK); configuration not given here) | 40.7% | 25 µM (≈ 22.7 µg/mL) | – | 50 µM (≈ 45.4 µg/mL) | – | –
NCCCC[C@@H]1NC(=O)CCCCCCCCCCCNC(=O)[C@H](CCCCN)NC(=O)[C@H](CCCCN)NC(=O)[C@H](CCCCN)NC(=O)CCCCCCCCCCCNC(=O)[C@H](CCCCN)NC1=O [Polymer 11, Cyclic-KNC12KKKNC12K] (cyclo(K[12Ado]KKK[12Ado]K)) | 38% | 12.5 µM (≈ 12.9 µg/mL) | >50 µM | >50 µM | >50 µM | –
NCCCC[C@@H]1NC(=O)CCCCCCCCCCCNC(=O)[C@H](CCCCN)NC(=O)[C@H](CCCCN)NC(=O)CCCCCCCCCCCNC(=O)[C@H](CCCCN)NC(=O)[C@H](CCCCN)NC(=O)CCCCCCCCCCCNC1=O [Polymer 10, Cyclic-NC12K(KNC12K)2] (cyclo([12Ado]KK[12Ado]KK[12Ado]K)) | 43.1% | 12.5 µM (≈ 15.4 µg/mL) | 12.5 µM (≈ 15.4 µg/mL) | 6.25 µM (≈ 7.71 µg/mL) | 12.5 µM (≈ 15.4 µg/mL) | –
GIGKFLKKAKKFGKAFVKILKK-NH2 (C-terminus assumed) [Ref. 1, MSI-78, reference compound] | 44% | – | – | 37.5 µM | – | –
NCCCC[C@@H]1NC(=O)CCCCCCCCCCCNC(=O)[C@H](CCCCN)NC(=O)CCCCCCCCCCCNC(=O)[C@H](CCCCN)NC(=O)CCCCCCCCCCCNC(=O)[C@H](CCCCN)NC(=O)[C@H](CCCCN)NC(=O)CCCCCCCCCCCNC(=O)[C@H](CCCCN)NC(=O)CCCCCCCCCCCNC1=O [Polymer 2, Cyclic-K(NC12K)5] (cyclo(K[12Ado]K[12Ado]K[12Ado]K[12Ado]K[12Ado]K)) | 46.6% | 12.5 µM (≈ 21.9 µg/mL) | 12.5 µM (≈ 21.9 µg/mL) | 6.25 µM (≈ 11 µg/mL) | 6.25 µM (≈ 11 µg/mL) | –
NCCCC[C@@H]1NC(=O)CCCCCCCCCCCNC(=O)[C@H](CCCCN)NC(=O)[C@H](CCCCN)NC(=O)[C@H](CCCCN)NC(=O)CCCCCCCCCCCNC(=O)[C@H](CCCCN)NC(=O)[C@H](CCCCN)NC1=O [Polymer 12, Cyclic-KNC12KKKNC12KK] (cyclo(K[12Ado]KKK[12Ado]KK)) | 35% | >50 µM | >50 µM | >50 µM | >50 µM | –
NCCCCC1NC(=O)CCCCCCCCCCCNC(=O)C(CCCCN)NC(=O)CCCCCCCCCCCNC(=O)C(CCCCN)NC(=O)CCCCCCCCCCCNC1=O (stereo not shown) [Polymer 4, Cyclic-(NC12K)3] | 47.0% | >50 µM | >50 µM | – | 12.5 µM (≈ 12.2 µg/mL) | MIC B.c [4]: >50 µM
